One compound from US20200223826A1, “Glucose-6-Phosphate Dehydrogenase (G6PD)-Modulating Agents And Methods Of Treating G6PD Deficiency” (The Board of Trustees of the Leland Stanford Junior …, priority 2017, published 2020) can be followed below.

Test [1] has as its target T1, A- (V68M, N126D) G6PD (Homo sapiens, UniProt P11413, N126D/V68M).
T1 construct: His (pET-28a) (N, cleaved yes); made in house; host or cells: E. coli C43 (DE3)
The experiment in a line: G6PD variant enzyme activity. The test is classed as biochemical. On the procedure:
(§1) Enzyme activity was measured by monitoring NADPH production, which was coupled with diaphorase converting resazurin to fluorescent resorufin (excitation at 565 nm and emission at 590 nm); fluorescent signal was thus proportional to G6PD activity. Assays were performed at 25° C. and run for 5 minutes in buffer containing 50 mM Tris (pH 7.4), 0.5 mM EDTA, 3.3 mM MgCl2, 1 U/ml diaphorase, 0.1 mM resazurin. 10 ng of recombinant enzymes or 10 μg of cell lysates was used for the assay with 10 μM NADP^+ (Sigma) as cofactor and 100 μM G6P (Sigma) as substrate. Steady-state kinetic parameters were obtained by varying concentrations of NADP^+ (0-10 μM) with a constant concentration of G6P (100 μM) and similarly for G6P (0-100 μM) with a constant concentration of NADP^+ (10 μM) with 10 ng of recombinant enzymes. Data analysis was performed using GraphPad Prism software v.6 (GraphPad Software, La Jolla, Calif. USA). Kinetic parameters were obtained by fitting the data to the Michaelis-Menten equation.

Test [2] concerns the target T2, Kaiping (R463H) G6PD (Homo sapiens, UniProt P11413, R463H).
T2 construct: His (pET-28a) (N, cleaved yes); made in house; host or cells: E. coli C43 (DE3)
The experiment in a line: G6PD variant enzyme activity. In kind it is biochemical. The protocol:
as §1

The target of test [3] is T3, Mediterranean (S188F) G6PD (Homo sapiens, UniProt P11413, S188F).
T3 construct: His (pET-28a) (N, cleaved yes); made in house; host or cells: E. coli C43 (DE3)
T3 sequence (P11413 whole entry S188F): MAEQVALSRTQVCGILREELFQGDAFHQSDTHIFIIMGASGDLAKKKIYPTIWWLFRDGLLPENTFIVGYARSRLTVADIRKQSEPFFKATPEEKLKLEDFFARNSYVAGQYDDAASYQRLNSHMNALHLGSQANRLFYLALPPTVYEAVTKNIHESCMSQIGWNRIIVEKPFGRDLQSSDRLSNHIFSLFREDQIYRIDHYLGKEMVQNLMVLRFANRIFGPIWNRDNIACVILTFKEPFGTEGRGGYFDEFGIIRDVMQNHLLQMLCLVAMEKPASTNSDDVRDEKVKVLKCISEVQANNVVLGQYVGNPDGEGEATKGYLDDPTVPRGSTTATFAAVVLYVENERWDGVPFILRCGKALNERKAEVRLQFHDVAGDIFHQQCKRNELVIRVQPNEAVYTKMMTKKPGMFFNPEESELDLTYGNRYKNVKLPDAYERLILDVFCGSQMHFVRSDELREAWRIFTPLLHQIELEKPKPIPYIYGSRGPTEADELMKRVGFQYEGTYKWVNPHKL
The experiment in a line: G6PD variant enzyme activity. In kind it is biochemical. On the procedure: as §1

Test [4] addresses T4, G6PD in lysate of human fibroblasts with the Mediterranean variant (Homo sapiens, UniProt P11413, S188F).
T4 construct: host or cells: subject-derived fibroblast cell line
The experiment in a line: G6PD activity in fibroblast lysate. In kind it is cell-based. On the procedure:
Lymphocytes derived from a normal subject (HG 00866) and a G6PD-deficient subject carrying Canton variant in G6PD (HG 02367) were purchased from Coriell Institute and cultured in RPMI 1640 supplemented with 15% fetal bovine serum (FBS), 100 U/ml penicillin, and 100 μg/ml streptomycin. An SH-SY5Y neuroblastoma cell line was cultured in Dulbecco's Modification of Eagle's Medium/Ham's F-12 50/50 Mix supplemented with 10% FBS, 100 U/ml penicillin, and 100 μg/ml streptomycin. A G6PD-deficient subject-derived fibroblast cell line carrying Mediterranean variant and normal fibroblast cell line as control were purchased from Coriell Institute (GM 01152) and ThermoFisher Scientific (C0135C), respectively, and cultured in minimum essential medium supplemented with 15% FBS, 100 U/ml penicillin, and 100 μg/ml streptomycin. All the cell lines were maintained at 37° C. in a humidified incubator with an atmosphere of 5% of CO2 and 95% air.
Enzyme activity was measured by monitoring NADPH production, which was coupled with diaphorase converting resazurin to fluorescent resorufin (excitation at 565 nm and emission at 590 nm); fluorescent signal was thus proportional to G6PD activity. Assays were performed at 25° C. and run for 5 minutes in buffer containing 50 mM Tris (pH 7.4), 0.5 mM EDTA, 3.3 mM MgCl2, 1 U/ml diaphorase, 0.1 mM resazurin. […]

Test [5] concerns the target T5, Canton G6PD (Homo sapiens, UniProt P11413, R459L).
T5 construct: His (pET-28a) (N, cleaved yes); made in house; host or cells: E. coli C43 (DE3)
The experiment in a line: Canton G6PD enzyme activity, diaphorase-coupled assay. In kind it is biochemical. On the procedure: as §1
The diaphorase-coupled enzyme assay as described above was used to screen a library of compounds for small molecule activators. The compounds were added to Canton G6PD enzyme reaction mixture at a final concentration of 16.67 μM using Caliper Life Sciences Staccato system with a Twister II robot and a Sciclone ALH3000 (Caliper Life Sciences, Alameda, Calif. USA) integrated with a V&P Scientific pin tool, which was followed by incubation for 3 hours. Addition of G6P then initiated the reaction, which was run for 2.5 minutes. The fluorescent signals were recorded 4 times during the run using Molecular Devices AnalystGT (Molecular Devices, Sunnyvale, Calif. USA). Any compounds showing 30% activation of the enzyme were rescreened in a dose-dependent manner (0-30 μM, duplicate) to identify potential hits.
Based on preliminary results with compound AG1, a variety of compounds of interest were prepared and assessed in G6PD enzyme activation assays, according to the methods described herein.

In test [6] the target is T5, Canton G6PD. The experiment in a line: In vitro proteolysis assay with chymotrypsin. The conditions noted are these: in the presence of AG1, 25% in its absence. On the procedure:
200 ng of recombinant enzymes were incubated with 1 μL of 10 ng/μL chymotrypsin for 1 hour at room temperature. 100 μM of the compound was added to some reaction conditions. The following protein level was examined by Western blot.

The test system of test [7] is human erythrocytes. The experiment in a line: Erythrocyte refrigerated storage assay, protein leakage. In kind it is cell-based. The conditions noted are these: AG1 1 μM. The protocol: De-identified blood samples were obtained from the Stanford Blood Center. Erythrocytes were collected by filtering the samples through a cellulose slurry to remove platelets and leukocytes and then washed with saline. G6PD activity was measured (Beutler E. Red cell metabolism: A manual of biochemical methods (3rd edition). Grune & Stratton (1984)). […] A 5% erythrocyte suspension was pre-incubated with 1-5 μM AG1 at 4° C. overnight, which was followed by treatment with (or without) either 1 mM chloroquine (CQ) or 1 mM diamide for 3-4 hours at 37° C. (for hemolysis assay with chloroquine, the mixture was incubated under light). Then centrifugation at 1,000 rpm for 5 minutes was followed. Hemoglobin release in the supernatant was monitored by measuring absorbance at 540 nm. […] After wash, the samples were lysed with 0.1% Triton X-100 (final concentration), and the florescence was analyzed with excitation/emission at 485/525 nm. GSH measurement was determined using a Cayman glutathione assay kit (Cayman Chemicals, 703002). […] The absorbance was read at 412 nm. For storage assay, a 5% erythrocyte suspension was stored at 4° C. with and without 1 μM AG1, and hemolysis and G6PD activity were monitored every week for 28 days to examine whether AG1 improves preservation of erythrocytes over time. Protein leakage was also examined by measuring the absorbance of the supernatant of samples at 280 nm. […]

T5 sequence (P11413 whole entry R459L): as the sequence (P11413 whole entry S188F) above, with F188S, R459L counted along it
T2 sequence (P11413 whole entry R463H): as the sequence (P11413 whole entry S188F) above, with F188S, R463H counted along it
T4 sequence (P11413 2-515 S188F limits assumed): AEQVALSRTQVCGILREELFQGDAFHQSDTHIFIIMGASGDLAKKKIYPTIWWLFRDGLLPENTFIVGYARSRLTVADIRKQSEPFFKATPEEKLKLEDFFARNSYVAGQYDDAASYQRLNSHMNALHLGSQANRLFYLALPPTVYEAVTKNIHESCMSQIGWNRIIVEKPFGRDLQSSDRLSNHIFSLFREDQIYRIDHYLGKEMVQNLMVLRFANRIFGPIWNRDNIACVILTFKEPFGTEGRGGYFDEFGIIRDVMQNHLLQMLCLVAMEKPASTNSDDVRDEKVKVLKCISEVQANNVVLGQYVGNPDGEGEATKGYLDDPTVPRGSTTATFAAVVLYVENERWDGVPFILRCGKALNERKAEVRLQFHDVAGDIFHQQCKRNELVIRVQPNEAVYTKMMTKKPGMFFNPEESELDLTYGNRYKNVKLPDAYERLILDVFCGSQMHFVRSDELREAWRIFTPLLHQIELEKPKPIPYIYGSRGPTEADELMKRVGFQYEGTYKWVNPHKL
T1 sequence (P11413 whole entry V68M/N126D): as the sequence (P11413 whole entry S188F) above, with V68M, N126D, F188S counted along it

Regarding `SCCNCCc1c[nH]c2ccccc12` [AG1, 2-[2-(1H-indol-3-yl)ethylamino]ethanethiol], the activation of variant result in test [1], in test [2] and in test [3] was “up to 2 fold” throughout. For the same compound, the “increase of G6PD activity in lysate” value in test [4] is 50%. In test [5] (100 μM of AG1), the “increase of the activity of Canton G6PD enzyme” value is on record as 70%. Moreover, the “kcat (turnover number)” value in test [5] (Canton G6PD in presence of AG1) was found to be 296 ± 1 S^−1. Moreover, the EC50 in test [5] (read-out: EC50 of activation of Canton G6PD) was approximately 3 µM. Further, the “protein remaining after proteolysis” value in test [6] is recorded as 50%. The protein leakage entry in test [7] was “decreased”.

By EC50 is commonly meant the midpoint of the concentration-response curve.
